{"source": "the supplement of paper PMC11208160"}
{"assay": "recombinant UMI read abundance after kanamycin selection (control-corrected) (log10(CPM+1)); higher = more efficient recombination; extreme values may be limits of the assay; sequences stand for … in AGTGCAGAGAAAATCGGCCAGTTTTCTCTGCCTGCAGTCCGCATGCCGTGGGACCCCTTGGGTTCTAACCTGTTGCCTAGATTTATGCAGCGGACTGCCTTTCTCCCAAAGTGATAAACCGG…AGGTTGGTTTCACT; site = the 11-nt donor", "method_in_brief": "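Two replicates each of selected and unselected plating were used in this pooled Escherichia coli screen of donor and donor-binding-loop pairs for the IS621 bridge recombinase. Selection was with IPTG (0.07 mM) and kanamycin. Counts of recombinant UMIs, amplified across the donor–target junction, were converted to CPM, averaged, scaled by control-derived factors and reported as log10(CPM+1).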"}
{"sequence": "ATGGAGGCATGGACCGGTTTTCCCGGTAATCCGTATTTGTG (site CTGGAGGCTCA)", "recombinant UMI read abundance (log10)": 0.764}
{"sequence": "ATGGAGGCATGGACCGGTTTTCCCGGTAATCCGTATTTGTG (site GTGGAGGCTCA)", "recombinant UMI read abundance (log10)": 0.0176}
{"sequence": "ATGGAGGCATGGACCGGTTTTCCCGGTAATCCGTATTTGTG (site TTGGAGGCTCA)", "recombinant UMI read abundance (log10)": 0.765}
{"sequence": "ATGGCTACATGGACCGGTTTTCCCGGTAATCCGTATTTGGG (site ATGGCTACTCC)", "recombinant UMI read abundance (log10)": 0.356}
{"sequence": "ATGTAAGCATGGACCGGTTTTCCCGGTAATCCGTATTTGGC (site ATGTAAGCTGC)", "recombinant UMI read abundance (log10)": 3.24}
{"sequence": "ATGTAAGCATGGACCGGTTTTCCCGGTAATCCGTATTTGGC (site ATGTACGCTGC)", "recombinant UMI read abundance (log10)": 0.982}
{"sequence": "ATGTAAGCATGGACCGGTTTTCCCGGTAATCCGTATTTGGC (site ATGTAGGCTGC)", "recombinant UMI read abundance (log10)": 2.04}
{"sequence": "ATGTAAGCATGGACCGGTTTTCCCGGTAATCCGTATTTGGC (site ATGTATGCTGC)", "recombinant UMI read abundance (log10)": 0}
{"sequence": "ATGTACGCATGGACCGGTTTTCCCGGTAATCCGTATTTGGT (site ATGTACGCTAC)", "recombinant UMI read abundance (log10)": 1.42}
{"sequence": "ATGTAGGCATGGACCGGTTTTCCCGGTAATCCGTATTTGCC (site ATGTAGGCTGA)", "recombinant UMI read abundance (log10)": 1.76}
{"sequence": "ATGTAGGCATGGACCGGTTTTCCCGGTAATCCGTATTTGCC (site ATGTAGGCTGC)", "recombinant UMI read abundance (log10)": 0}
{"sequence": "ATGTAGGCATGGACCGGTTTTCCCGGTAATCCGTATTTGCC (site ATGTAGGCTGG)", "recombinant UMI read abundance (log10)": 2.21}
{"sequence": "ATGTAGGCATGGACCGGTTTTCCCGGTAATCCGTATTTGCC (site ATGTAGGCTGT)", "recombinant UMI read abundance (log10)": 1.7}
{"sequence": "ATGTAGTCATGGACCGGTTTTCCCGGTAATCCGTATTTGGT (site ATGTAGTCTAC)", "recombinant UMI read abundance (log10)": 2.81}
{"sequence": "ATTAAGTCATGGACCGGTTTTCCCGGTAATCCGTATTTGTA (site ATTAAGTCTTA)", "recombinant UMI read abundance (log10)": 2.58}
{"sequence": "ATTAGAACATGGACCGGTTTTCCCGGTAATCCGTATTTGAG (site AATAGAACTCT)", "recombinant UMI read abundance (log10)": 0.403}
{"sequence": "ATTAGAACATGGACCGGTTTTCCCGGTAATCCGTATTTGAG (site ACTAGAACTCT)", "recombinant UMI read abundance (log10)": 0.665}
{"sequence": "ATTAGAACATGGACCGGTTTTCCCGGTAATCCGTATTTGAG (site AGTAGAACTCT)", "recombinant UMI read abundance (log10)": 0.286}
{"sequence": "ATTAGAACATGGACCGGTTTTCCCGGTAATCCGTATTTGAG (site ATTAGAACTCT)", "recombinant UMI read abundance (log10)": 1.22}
{"sequence": "ATTAGGCCATGGACCGGTTTTCCCGGTAATCCGTATTTGAC (site ATAAGGCCTGT)", "recombinant UMI read abundance (log10)": 0}
{"sequence": "ATTAGGCCATGGACCGGTTTTCCCGGTAATCCGTATTTGAC (site ATCAGGCCTGT)", "recombinant UMI read abundance (log10)": 0.0148}
{"sequence": "ATTAGGCCATGGACCGGTTTTCCCGGTAATCCGTATTTGAC (site ATGAGGCCTGT)", "recombinant UMI read abundance (log10)": 0}
{"sequence": "ATTAGGCCATGGACCGGTTTTCCCGGTAATCCGTATTTGAC (site ATTAGGCCTGT)", "recombinant UMI read abundance (log10)": 0}
{"sequence": "ATTATCCCATGGACCGGTTTTCCCGGTAATCCGTATTTGCC (site ATTATCCCTGG)", "recombinant UMI read abundance (log10)": 0.749}
{"sequence": "ATTCACGCATGGACCGGTTTTCCCGGTAATCCGTATTTGCA (site ATTCACGCTTG)", "recombinant UMI read abundance (log10)": 2.42}
{"sequence": "ATTCAGCCATGGACCGGTTTTCCCGGTAATCCGTATTTGTT (site ATTCAGCCTAA)", "recombinant UMI read abundance (log10)": 0.0136}
{"sequence": "ATTCATACATGGACCGGTTTTCCCGGTAATCCGTATTTGGC (site ATTCATACTGC)", "recombinant UMI read abundance (log10)": 1.81}
{"sequence": "ATTCCATCATGGACCGGTTTTCCCGGTAATCCGTATTTGAC (site ATTCCATCTGT)", "recombinant UMI read abundance (log10)": 0.764}
{"sequence": "ATTCCGACATGGACCGGTTTTCCCGGTAATCCGTATTTGTG (site ATTCCGACTCA)", "recombinant UMI read abundance (log10)": 0.00802}
